Literature values, collected in publication PMC6472032 (Marine Drugs, 2019).

Conditions: in vivo; cited from earlier work

## desmopressin
  mean terminal half-life: 3.7 h
